Experimental data as given in PMC11965388 (Nature Communications, 2025).

Legend:
pain = conditions: mice; cited from earlier work
[1] = biological target: T1, α6β4^L121F (human α6β4 nAChR, L121F in β4) (Homo sapiens, UniProt P30926+Q15825, L142F); conditions: L121F vs WT, two-electrode voltage clamp
[2] = biological target: T1, α6β4^L121F (human α6β4 nAChR, L121F in β4); test: cell-based
neuropathic pain = conditions: cited from earlier work
[3] = biological target: human α6β4 nAChR (α6β4^WT) (Homo sapiens, UniProt P30926+Q15825); test: Two-electrode voltage clamp in Xenopus oocytes, wild-type α6β4; format: cell-based; conditions: times higher affinity than nicotine
Sequence of human α6β4 nAChR (α6β4^WT) (Q15825 31-494 limits assumed): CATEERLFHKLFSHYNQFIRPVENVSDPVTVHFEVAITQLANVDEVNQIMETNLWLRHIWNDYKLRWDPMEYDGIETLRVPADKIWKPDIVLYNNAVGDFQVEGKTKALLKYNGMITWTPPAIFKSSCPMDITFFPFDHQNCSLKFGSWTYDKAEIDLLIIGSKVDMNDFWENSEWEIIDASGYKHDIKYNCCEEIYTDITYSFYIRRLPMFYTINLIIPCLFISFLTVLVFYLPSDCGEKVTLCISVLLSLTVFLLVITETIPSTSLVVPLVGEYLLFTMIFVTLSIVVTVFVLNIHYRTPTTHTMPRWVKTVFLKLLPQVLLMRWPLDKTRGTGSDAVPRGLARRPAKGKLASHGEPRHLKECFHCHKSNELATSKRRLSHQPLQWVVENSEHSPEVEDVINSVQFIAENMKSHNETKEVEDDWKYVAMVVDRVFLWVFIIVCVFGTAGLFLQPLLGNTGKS
Sequence of human α6β4 nAChR (α6β4^WT) (P30926 22-498): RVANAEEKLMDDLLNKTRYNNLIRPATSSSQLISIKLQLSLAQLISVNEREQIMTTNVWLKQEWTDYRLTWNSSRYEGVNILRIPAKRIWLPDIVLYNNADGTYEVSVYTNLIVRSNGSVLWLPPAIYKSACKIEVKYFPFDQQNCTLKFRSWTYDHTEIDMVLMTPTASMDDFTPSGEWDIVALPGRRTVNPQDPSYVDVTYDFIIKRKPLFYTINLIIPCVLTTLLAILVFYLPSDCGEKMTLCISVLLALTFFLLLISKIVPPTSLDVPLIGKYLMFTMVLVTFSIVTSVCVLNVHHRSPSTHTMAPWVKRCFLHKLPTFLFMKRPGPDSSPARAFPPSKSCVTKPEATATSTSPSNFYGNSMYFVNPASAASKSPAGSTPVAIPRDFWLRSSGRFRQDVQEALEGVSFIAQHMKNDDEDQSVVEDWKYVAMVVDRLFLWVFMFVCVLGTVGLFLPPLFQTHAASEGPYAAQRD

T1 sequence (Q15825 31-494 limits assumed): as the sequence (Q15825 31-494 limits assumed) above
T1 sequence (P30926 22-498 L142F): as the sequence (P30926 22-498) above, with L121F counted along it

Row | Compound | analgesic effect (pain) | increase of binding affinity of α6β4 for nicotine by L121F mutation in β4 [1] | EC50 [2] [nM] | analgesic activity against neuropathic pain (neuropathic pain) | affinity for α6β4 relative to nicotine [3]
1 | CN1CCC[C@H]1c1cccnc1 [nicotine] | effective analgesics | approximately 10 fold | 2200 ± 400 | – | –
2 | Clc1ccc(OC[C@H]2CCN2)cn1 [tebanicline, (R)-5-(2-azetidinylmethoxy)-2-chloropyridine] | effective analgesics | – | – | potent analgesic activity | approximately 50 times
